Experimental data from US20210278408A1, “METHODS OF TREATMENT OF CANCER WITH SUBSTITUTED PYRROLE AND PYRAZOLE COMPOUNDS AND DIAGNOSIS OF CANCERS SUSCEPTIBLE TO TREATMENT WITH SUBSTITUTED PYRROLE AND PYRAZOLE COMPOUNDS” (Bantam Pharmaceutical, LLC, priority 2018, published 2021).

Tested on: 406 cancer cell lines, 73 blood tumor cell lines and 333 solid tumor cell lines
Assay: OmniScreen drug efficacy on cancer cell lines, fitted area under curve (AUC) of dose-response
Format: cell-based
Set-up: AUCs: unit not given beside the values
Procedure: Predictive biomarkers for genes indicating responsiveness to a therapeutic compound can be determined using a cell-based screening technique, such as that offered under the name OmniScreen™ (Crown Biosciences).
In one experimental study, predictive biomarkers were determined for Compound A197 efficacy on 406 cancer cell lines, 73 blood tumor cell lines and 333 solid tumor cell lines. Genomic data for the cell lines was downloaded from the Cancer Cell Line Encyclopedia Project (CCLE) website. Driver mutations were predicted on the Cancer Genome Interpreter Database; only driver mutations were used in the mutation related analysis.
Dose-response curves were fitted by the 4-parameter model:
in which top and bottom are the two asymptotes of the sigmoidal curve, EC50 is the relative IC50, and concentration x is in log−10 scale. To accommodate experimental errors, Bottom was allowed to go down to −20%, and Top was allowed to go up to 120%. The fitting error of a model is measured by
σECS0 is the standard error of EC50. In general, such fitting error should be less than 40% for a model to be considered acceptable. The fitted area under curve (AUC) is calculated by
where a=log(3, 10) and b=log(30000,10).

## Cc1nn(-c2nc(-c3ccc(C(F)(F)F)cc3)c(SC(C)C)s2)c(C(=O)O)c1-c1cccc(F)c1 [Compound A197, 4-(3-fluorophenyl)-1-(5-(isopropylthio)-4-(4-(trifluoromethyl)phenyl)thiazol-2-yl)-3-methyl-1H-pyrazole-5-carboxylic acid]
22Rv1, Prostate
  AUCs: 2.52
8505C, H&N/Thyroid
  AUCs: 3.78
A253, Submaxillary gland
  AUCs: 3.32
A875, Skin
  AUCs: 3.84
A2058, Skin
  AUCs: 3.64
A2780, Ovary
  AUCs: 2.43
A2780cis, Ovary
  AUCs: 2.68
  IC50: 541 nM
A-172, Brain&Nerves
  AUCs: 3.29
A-204, Muscle
  AUCs: 3.66
A-375, Skin
  AUCs: 3.42
A-427, Lung
  AUCs: 3.59
A-431, Skin
  AUCs: 2.96
A-673, Muscle
  AUCs: 2.78
AGS, Stomach/Gastric
  AUCs: 3.63
  IC50: 205000 nM
AN3 CA, Uterus
  AUCs: 3.88
ARH-77, Blood
  AUCs: 3.22
ASH-3, H&N/Thyroid
  AUCs: 3.41
AUC, Welch's t-test P-value 2.3e-16
  responsiveness of blood tumor cell lines versus solid tumor cell lines: more likely to be responsive
AsPC-1, Pancreas
  AUCs: 3.59
BT-20, Breast
  AUCs: 3.2
BT-483, Breast
  AUCs: 3.43
BxPC-3, Pancreas
  AUCs: 2.97
C4-2, Prostate
  AUCs: 3.61
C666-1, Nose
  AUCs: 3.15
C-33 A, Uterus
  AUCs: 3.7
CAL-27, Tongue
  AUCs: 3.17
CFPAC-1, Pancreas
  AUCs: 3.56
COV644, Ovary
  AUCs: 3.69
Ca Ski, Uterus
  AUCs: 4.35
Caki-2, Kidney
  AUCs: 3.53
Calu-6, Lung
  AUCs: 3.21
Caov-3, Ovary
  AUCs: 3.65
Capan-1, Pancreas
  AUCs: 3.82
Capan-2, Pancreas
  AUCs: 3.28
CoC1, Ovary
  AUCs: 2.95
CoC1/DDP, Ovary
  AUCs: 3.33
D283 Med, Brain&Nerves
  AUCs: 3.28
DMS 79, Lung
  AUCs: 4.09
DMS 114, Lung
  AUCs: 3.56
DU 145, Prostate
  AUCs: 2.99
DV-90, Lung
  AUCs: 3.1
Daoy, Brain&Nerves
  AUCs: 3.14
Detroit 562, Pharynx
  AUCs: 3.54
DoTc2 4510, Uterus/Cervix
  AUCs: 3.9
EBC-1, Lung
  AUCs: 3.47
ES-2, Ovary
  AUCs: 3.75
  IC50: 70800 nM
FaDu, Pharynx
  AUCs: 2.9
GTL-16, Stomach/Gastric
  AUCs: 3.18
HCC 94, Uterus
  AUCs: 2.92
  IC50: 806 nM
HCC1187, Breast
  AUCs: 3.63
HCC1500, Breast
  AUCs: 3.27
HCC1806, Breast
  AUCs: 3.39
HCC1937, Breast
  AUCs: 3.36
HCC1954, Breast
  AUCs: 3.44
HCC2218, Breast
  AUCs: 3.48
HCC2935, Lung
  AUCs: 3.49
HCCC-9810, Liver
  AUCs: 3.64
HCCLM3, Liver
  AUCs: 3.87
HEC-1-A, Uterus
  AUCs: 3.28
HEC-1-B, Uterus
  AUCs: 2.85
HGC-27, Stomach/Gastric
  AUCs: 2.39
HLE, Liver
  AUCs: 3.3
HLF, Liver
  AUCs: 3.43
HPAC, Pancreas
  AUCs: 2.98
HT-3, Uterus/Cervix
  AUCs: 3.91
  IC50: 30100 nM
HT-55, Large intestine/Colorectum
  AUCs: 4
HT-1080, Soft tissue
  AUCs: 3.07
HT-1376, Bladder
  AUCs: 4.11
HUH-1, Liver
  AUCs: 3.81
HeLa 229, Cervix
  AUCs: 3.37
Hep3B, Liver
  AUCs: 3.5
Homo sapiens, 22Rv1, 22Rv1, Prostate
  IC50: 1090 nM
Homo sapiens, A204, A-204, Muscle
  IC50: 184000 nM
Homo sapiens, A673, A-673, Muscle
  IC50: 701 nM
Homo sapiens, A2780, A2780, Ovary
  IC50: 863 nM
Homo sapiens, A-375, A-375, Skin
  IC50: 28100 nM
Homo sapiens, A-431, A-431, Skin
  IC50: 1110 nM
Homo sapiens, AN3-CA, AN3 CA, Uterus
  IC50: 45600 nM
Homo sapiens, BXPC-3, BxPC-3, Pancreas
  IC50: 351 nM
Homo sapiens, C6661, C666-1, Nose
  IC50: 24600 nM
Homo sapiens, CAL-27, CAL-27, Tongue
  IC50: 3420 nM
Homo sapiens, Ca-Ski, Ca Ski, Uterus
  IC50: 41300 nM
Homo sapiens, DMS-79, DMS 79, Lung
  IC50: 420000 nM
Homo sapiens, DU-145, DU 145, Prostate
  IC50: 835 nM
Homo sapiens, FaDu, Pharynx
  IC50: 341 nM
Homo sapiens, HEC-1B, HEC-1-B, Uterus
  IC50: 438 nM
Homo sapiens, HGC-27, HGC-27, Stomach/Gastric
  IC50: 513 nM
Homo sapiens, HPAC, Pancreas
  IC50: 467 nM
Homo sapiens, HT-1080, HT-1080, Soft tissue
  IC50: 990 nM
Homo sapiens, HuTu80, Hutu 80, Small intestine/Duodenum
  IC50: 880 nM
Homo sapiens, Ishikawa, Uterus
  IC50: 297 nM
Homo sapiens, JEG-3, JEG-3, Placenta
  IC50: 993 nM
Homo sapiens, LNCaP-Clone-FGC, LNCaP clone FGC, Prostate
  IC50: 172 nM
Homo sapiens, ME-180, ME-180, Uterus
  IC50: 562 nM
Homo sapiens, MES-SA, Uterus
  IC50: 480 nM
Homo sapiens, MES-SA/Dx5, MES-SA/DX5, Uterus
  IC50: 342 nM
Homo sapiens, MIA PaCa-2, MIA PaCa-2, Pancreas
  IC50: 2910 nM
Homo sapiens, MKN-1, MKN1, Stomach/Gastric
  IC50: 5360 nM
Homo sapiens, NCI-H146, NCI-H146, Lung
  IC50: 42600 nM
Homo sapiens, NCI-H187, NCI-H187, Lung
  IC50: 8360 nM
Homo sapiens, NCI-H226, NCI-H226, Lung
  IC50: 2230 nM
Homo sapiens, NCI-H446, NCI-H446, Lung
  IC50: 30500 nM
Homo sapiens, NCI-H526, NCI-H526, Lung
  IC50: 212000 nM
Homo sapiens, NCI-H1648, NCI-H1648, Lung
  IC50: 72900 nM
Homo sapiens, NCI-H2452, NCI-H2452, Lung
  IC50: 70800 nM
Homo sapiens, NUGC-3, NUGC-3, Stomach/Gastric
  IC50: 26500 nM
Homo sapiens, NUGC-4, NUGC-4, Stomach/Gastric
  IC50: 1350 nM
Homo sapiens, OVCAR-8, OVCAR-8, Ovary
  IC50: 1020 nM
Homo sapiens, PANC-1, PANC-1, Pancreas
  IC50: 2610 nM
Homo sapiens, RL95-2, RL95-2, Uterus
  IC50: 416 nM
Homo sapiens, RPMI-2650, RPMI-2650, Nose
  IC50: 843 nM
Homo sapiens, SCC-4, SCC-4, Tongue
  IC50: 833000 nM
Homo sapiens, SCC-9, SCC-9, Tongue
  IC50: 26100 nM
Homo sapiens, SK-MEL-5, SK-MEL-5, Skin
  IC50: 75100 nM
Homo sapiens, SK-MEL-28, SK-MEL-28, Skin
  IC50: 105000 nM
Homo sapiens, SK-OV-3, SK-OV-3, Ovary
  IC50: 84900 nM
Homo sapiens, SNU1, SNU-1, Stomach/Gastric
  IC50: 12600 nM
Homo sapiens, SNU-5, SNU-5, Stomach/Gastric
  IC50: 1950 nM
Homo sapiens, SW626, SW626, Ovary
  IC50: 415000 nM
Homo sapiens, SW756, SW756, Ovary
  IC50: 37900 nM
Homo sapiens, SW982, SW982, Soft tissue
  IC50: 66000 nM
Homo sapiens, WM 266-4, WM-266-4, Skin
  IC50: 32400 nM
HuCCT1, Liver
  AUCs: 3.24
Hutu 80, Small intestine/Duodenum
  AUCs: 2.69
IM95m, Stomach/Gastric
  AUCs: 2.9
  IC50: 601 nM
Ishikawa, Uterus
  AUCs: 2.44
JAR, Placenta
  AUCs: 2.57
  IC50: 673 nM
JEG-3, Placenta
  AUCs: 3.2
JHH-5, Liver
  AUCs: 3.56
JIMT-1, Breast
  AUCs: 3.62
KATO III, Stomach/Gastric
  AUCs: 3.2
